Laboratory results from patent US20220362276A1, “Small Molecule Inhibitors of Viral Replication” (The Trustees of Princeton University, priority 2019, published 2022).
“Also recorded” adds a separate entry of the source.

Assays:
ABHD10 = biological target: T1, ABHD10 (Homo sapiens, UniProt Q9NUJ1); experiment: Two-dimensional thermal proteome profiling (CETSA) in crude cell extract; conditions: isocotoin 0.5-30 μM, 37-66.3 °C
T1 sequence (Q9NUJ1 53-306): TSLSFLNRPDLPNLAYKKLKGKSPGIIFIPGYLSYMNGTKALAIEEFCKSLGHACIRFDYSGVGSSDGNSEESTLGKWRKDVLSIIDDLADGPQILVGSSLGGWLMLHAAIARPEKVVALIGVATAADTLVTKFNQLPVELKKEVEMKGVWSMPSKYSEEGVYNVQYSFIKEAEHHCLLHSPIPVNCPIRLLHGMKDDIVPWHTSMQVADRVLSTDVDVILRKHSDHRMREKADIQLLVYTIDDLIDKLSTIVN

[1] = test system: YFV17D-Gluc-BSD-Ires (YFV17D); format: cell-based, yellow fever virus 17-D vaccine strain
[2] = test system: TW6196E/Gluc (genotype 4); experiment: Dose titration against TW6196E/Gluc replicon; conditions: genotype 4, poor replicative capacity
Huh7 cells = experiment: ATP-based cell viability assay (CellTiterGlo); conditions: Huh7 cells, day 4
Procedure: Measurement of Cytotoxicity by CellTiterGlo Assay. […] Readout was performed using a Berthold luminometer.

OTC = biological target: T2, OTC (Homo sapiens, UniProt P00480); experiment: Two-dimensional thermal proteome profiling (CETSA) in crude cell extract; conditions: isocotoin 0.5-30 μM, 37-66.3 °C
T2 sequence (P00480 33-354): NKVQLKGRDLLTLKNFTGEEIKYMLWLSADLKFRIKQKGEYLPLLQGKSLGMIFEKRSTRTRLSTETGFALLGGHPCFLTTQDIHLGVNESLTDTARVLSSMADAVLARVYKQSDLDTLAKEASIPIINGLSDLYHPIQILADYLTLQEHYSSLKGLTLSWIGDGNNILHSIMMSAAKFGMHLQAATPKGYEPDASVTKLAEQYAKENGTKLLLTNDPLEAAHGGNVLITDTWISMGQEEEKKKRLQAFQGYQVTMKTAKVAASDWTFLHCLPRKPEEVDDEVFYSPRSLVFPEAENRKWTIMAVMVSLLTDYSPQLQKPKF

[3] = test system: p6/BSR-2A-ZsGreen replicon

Q: Which results are given for `COc1cc(O)cc(O)c1C(=O)c1ccccc1` [isocotoin, 4-benzoyl-5-methoxybenzene-1,3-diol]?
A: soluble protein fraction of ABHD10 (ABHD10): among hits showing the greatest increase in soluble protein fraction; inhibition of YFV17D replication, in words [1]: dose-dependent inhibitory effects; also recorded: to a greater extent than ribavirin; inhibition of TW6196E/Gluc replication, in words [2]: modest inhibitory effect; also recorded: inhibits replication; doses at which cytotoxicity was displayed (Huh7 cells): ≥ 25 µM; doses up to which no cytotoxicity was displayed (Huh7 cells): up to 12.5 μM; soluble protein fraction of OTC (OTC): among hits showing the greatest increase in soluble protein fraction; toxicity to cells on passaging ([3]; 30 μM isocotoin dose): some toxicity; ZsGreen levels on passaging ([3]; 30 μM isocotoin, first few passages): sharp decrease in ZsGreen levels
